In the supplement of paper PMC13380429:
± gives the standard deviation of the averaged measurements.

Legend:
Conditions in all cases: 72 h
Calu-3 [1] = experiment: drug sensitivity score (DSS) for viability; higher = more toxic; extreme values may be limits of the assay
U2OS [2] = experiment: as above
HepG2 [3] = experiment: as above
Vero E6 [4] = experiment: as above
Caco-2 [5] = experiment: as above
Calu-3 [6] = experiment: cell viability relative to DMSO; higher = less toxic
U2OS [7] = experiment: as above
HepG2 [8] = experiment: as above
Vero E6 [9] = experiment: as above
Caco-2 [10] = experiment: as above
Calu-3 [11] = experiment: relative viability EC50 (midpoint between 100% and the lowest measured viability); higher = less toxic
U2OS [12] = experiment: as above
HepG2 [13] = experiment: as above
Vero E6 [14] = experiment: as above
Caco-2 [15] = experiment: as above

Compound | drug sensitivity score (Calu-3 [1]) | drug sensitivity score (U2OS [2]) | drug sensitivity score (HepG2 [3]) | drug sensitivity score (Vero E6 [4]) | drug sensitivity score (Caco-2 [5]) | cell viability (Calu-3 [6]; 1 nM) [%] | cell viability (Calu-3 [6]; 10 nM) [%] | cell viability (Calu-3 [6]; 100 nM) [%] | cell viability (Calu-3 [6]; 1000 nM) [%] | cell viability (Calu-3 [6]; 10000 nM) [%] | cell viability (U2OS [7]; 1 nM) [%] | cell viability (U2OS [7]; 10 nM) [%] | cell viability (U2OS [7]; 100 nM) [%] | cell viability (U2OS [7]; 1000 nM) [%] | cell viability (U2OS [7]; 10000 nM) [%] | cell viability (HepG2 [8]; 1 nM) [%] | cell viability (HepG2 [8]; 10 nM) [%] | cell viability (HepG2 [8]; 100 nM) [%] | cell viability (HepG2 [8]; 1000 nM) [%] | cell viability (HepG2 [8]; 10000 nM) [%] | cell viability (Vero E6 [9]; 1 nM) [%] | cell viability (Vero E6 [9]; 10 nM) [%] | cell viability (Vero E6 [9]; 100 nM) [%] | cell viability (Vero E6 [9]; 1000 nM) [%] | cell viability (Vero E6 [9]; 10000 nM) [%] | cell viability (Caco-2 [10]; 1 nM) [%] | cell viability (Caco-2 [10]; 10 nM) [%] | cell viability (Caco-2 [10]; 100 nM) [%] | cell viability (Caco-2 [10]; 1000 nM) [%] | cell viability (Caco-2 [10]; 10000 nM) [%] | relative viability EC50 (Calu-3 [11]) [µM] | relative viability EC50 (U2OS [12]) [µM] | relative viability EC50 (HepG2 [13]) [µM] | relative viability EC50 (Vero E6 [14]) [µM] | relative viability EC50 (Caco-2 [15]) [µM]
O=C(Nc1ccccc1C(=O)NC1CCCCNC1=O)c1cc2ccccc2s1 (stereo not given) [ANA-12] | 0.3 | 0 | 0 | 0 | 0 | 99.6 | 95.3 | 101 | 94.7 | 87.7 | 97.8 | 101 | 91.5 | 104 | 96.7 | 104 | 93.1 | 100 | 91.4 | 98.4 | 100 | 99.3 | 99.8 | 89.5 | 104 | 90.9 | 97.4 | 96.1 | 106 | 96.4 | > 10 | > 10 | > 10 | > 10 | > 10
Oc1cc(O)cc(/C=C/c2ccc(O)c(O)c2)c1 [piceatannol] | 0 | 0 | 0 | 0 | 0.5 | 95.3 | 93.5 | 90.4 | 99.9 | 88.9 | 97.5 | 98.2 | 94.2 | 100 | 96.1 | 98.8 | 87.3 | 105 | 92.7 | 97.7 | 103 | 94.1 | 94.8 | 92.1 | 101 | 90.2 | 93.7 | 101 | 96.1 | 86 | > 10 | > 10 | > 10 | > 10 | > 10
CC[N+](C)(CC)CCOC(=O)C(O)(c1ccccc1)C1CCCCC1 (stereo not given) [oxyphenonium] | 0.1 | 0 | 0 | 0 | 0 | 92.9 | 106 | 97.5 | 99.2 | 87.2 | 97.8 | 100 | 98.8 | 98.3 | 96.6 | 90.4 | 94.1 | 98.1 | 86.2 | 99.4 | 95.9 | 97.2 | 100 | 99.4 | 96.8 | 88.6 | 98.4 | 88.7 | 101 | 95.6 | > 10 | > 10 | > 10 | > 10 | > 10
COC(=O)CC[C@@H]1N=C(c2ccccn2)c2cc(Br)ccc2-n2c(C)cnc21 [remimazolam] | 0 | 0 | 0 | 0 | 0 | 104 | 94.1 | 111 | 90 | 95.2 | 96.4 | 105 | 97.7 | 98 | 97.8 | 97.1 | 83.5 | 103 | 100 | 108 | 103 | 96.5 | 99.3 | 96 | 99.8 | 95.2 | 101 | 95.3 | 99.2 | 91.7 | > 10 | > 10 | > 10 | > 10 | > 10
CO[C@H]1/C=C/O[C@@]2(C)Oc3c(C)c(O)c4c(O)c(c(/C=N/N=C/N5CCCCC5)c(O)c4c3C2=O)NC(=O)/C(C)=C\C=C\[C@H](C)[C@H](O)[C@@H](C)[C@@H](O)[C@@H](C)[C@H](OC(C)=O)[C@@H]1C | 0 | 0 | 0 | 0 | 0 | 107 | 102 | 105 | 98.2 | 101 | 102 | 106 | 99 | 99.6 | 91.6 | 98.5 | 101 | 93.3 | 113 | 108 | 102 | 100 | 98 | 98.2 | 90.9 | 85.4 | 96.2 | 84.9 | 90.9 | 83.1 | > 10 | > 10 | > 10 | > 10 | > 10
C=C1/C(=C\C=C2/CCC[C@]3(C)[C@@H]([C@H](C)/C=C/[C@@H](O)C4CC4)CC[C@@H]23)C[C@@H](O)C[C@@H]1O [calcipotriol] | 0 | 0 | 0 | 0 | 0 | 95.4 | 108 | 102 | 93.7 | 96 | 99.5 | 96.9 | 99 | 94.8 | 93.5 | 101 | 88.5 | 95 | 99.6 | 94.6 | 97.5 | 96.7 | 98.2 | 92.3 | 91.9 | 94.7 | 88.6 | 99.6 | 88.3 | 89.9 | > 10 | > 10 | > 10 | > 10 | > 10
CSCC[C@H](NC(=O)[C@H](CC(C)C)NC(=O)[C@@H](Cc1c[nH]c2ccccc12)NC(=O)[C@H](Cc1ccccc1)N(C)C(=O)[C@@H](Cc1c[nH]c2ccccc12)NC(=O)[C@@H](N)CCCNC(=N)N)C(N)=O [antagonist-g] | 0 | 0 | 0 | 0 | 0 | 105 | 91 | 98.8 | 89.3 | 111 | 99.9 | 93.1 | 97.7 | 97 | 97.4 | 104 | 98.1 | 103 | 84.8 | 105 | 96.2 | 97 | 102 | 85.6 | 96.3 | 93.8 | 89.7 | 96.3 | 75.6 | 122 | > 10 | > 10 | > 10 | > 10 | > 10
O=S(=O)(O)c1ccc(-c2c3nc(c(-c4ccc(S(=O)(=O)O)cc4)c4ccc([nH]4)c(-c4ccc(S(=O)(=O)O)cc4)c4nc(c(-c5ccc(S(=O)(=O)O)cc5)c5ccc2[nH]5)C=C4)C=C3)cc1 [TPPS4] | 0 | 0 | 0.3 | 0.7 | 0 | 94.2 | 93.1 | 109 | 99 | 90.1 | 101 | 94.2 | 105 | 105 | 91.6 | 100 | 102 | 104 | 107 | 80.5 | 110 | 102 | 93.6 | 95.7 | 81.9 | 107 | 87.2 | 91.4 | 96.4 | 101 | > 10 | > 10 | > 10 | > 10 | > 10
CC#CCn1c(N2CCC[C@@H](N)C2)nc2c1c(=O)n(Cc1nc(C)c3ccccc3n1)c(=O)n2C [linagliptin] | 0 | 0 | 0 | 0 | 0 | 95.9 | 103 | 99.2 | 97.9 | 102 | 98.4 | 99.8 | 98.9 | 107 | 96.1 | 95.3 | 93.8 | 95.7 | 103 | 102 | 97.1 | 106 | 105 | 84.4 | 110 | 103 | 105 | 89.9 | 91.4 | 102 | > 10 | > 10 | > 10 | > 10 | > 10
COC(=O)C1=C(C)NC(C)=C([N+](=O)[O-])[C@@H]1c1ccccc1C(F)(F)F (racemic) [BAY-K-8644-(+/-)] | 0 | 0 | 0 | 0 | 0 | 101 ± 8.4 | 99.4 ± 2.1 | 99.9 ± 7.6 | 100 ± 6.7 | 98.5 ± 3.2 | 95.9 ± 0.28 | 95.9 ± 4.4 | 98.8 ± 4.9 | 97.9 ± 4.7 | 96.2 ± 0.85 | 99.8 ± 1.3 | 93.6 ± 3.2 | 95.2 ± 1.8 | 104 ± 10 | 94.25 ± 0.21 | 95 ± 1.1 | 97.9 ± 1.4 | 99.4 ± 4.5 | 100 ± 2 | 101 ± 5.7 | 89.8 ± 1.6 | 94.5 ± 2.3 | 94.3 ± 1.8 | 106 ± 4.2 | 93.4 ± 3.4 | > 10 | > 10 | > 10 | > 10 | > 10
c1cnc(NCc2ccc(CNc3ncccn3)cc2)nc1 [MSX-122] | 0 | 0 | 0 | 0 | 0 | 104 | 100 | 109 | 99.4 | 113 | 94.7 | 103 | 106 | 99.4 | 99.8 | 90.6 | 103 | 102 | 92.3 | 101 | 101 | 98.6 | 100 | 103 | 99.1 | 92.9 | 100 | 107 | 112 | 99.2 | > 10 | > 10 | > 10 | > 10 | > 10
CC(C)=CCC[C@]1(C)C=Cc2c(O)c3c(c(CC=C(C)C)c2O1)O[C@]12C(=C[C@@H]4C[C@H]1C(C)(C)O[C@@]2(C/C=C(/C)C(=O)O)C4=O)C3=O [gambogic-acid] | 16.6 | 18.8 | 15.4 | 16.7 | 18.5 | 100 | 138 | 111 | 4.7 | -0.3 | 98.8 | 102 | 94 | -0.1 | -0.3 | 97.6 | 93.6 | 99.3 | 15.6 | -0.4 | 105 | 104 | 106 | 6 | -0.3 | 90.7 | 102 | 94.9 | 1.9 | -0.1 | 0.404 | 0.269 | 0.51 | 0.4 | 0.288
CCN1CCC[C@H]1CNC(=O)c1c(O)c(Cl)cc(Cl)c1OC [raclopride] | 0 | 0 | 0 | 0 | 0 | 97.9 | 94 | 92.4 | 96.7 | 97.4 | 101 | 95.2 | 96.6 | 95 | 99.9 | 99.6 | 104 | 93.7 | 101 | 93.1 | 101 | 100 | 94.7 | 93 | 100 | 91.2 | 88.3 | 93.5 | 84 | 96.6 | > 10 | > 10 | > 10 | > 10 | > 10
